Laboratory results as given in PubChem BioAssay AID248 (DTP/NCI, 2004).
“And” between values parts separate entries of the source, which are not always exact repeats. Equal entries are not always repeated. Inconclusive results and toxic doses are left out. No stated cut-off is given here; in the data, active means T/C of 150% or more; inactive means T/C below 125%.

Tested on: L1210 leukemia ip in BDF1 mice, survival T/C
Test: NCI In Vivo Anticancer Drug Screen. Data for tumor model L1210 Leukemia (intraperitoneal) in B6D2F1 (BDF1) mice
Conditions: endpoint: mean survival time, higher = longer survival
How it was run: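 Each compound was tested against a transplantable tumor grown in mice. The endpoint was survival, with treated animals benchmarked against vehicle controls as a simple ratio.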

[1] = dose: 100.0 mg/kg/injection, schedule: Q01DX009 (ip), vehicle: water
[2] = dose: 50.0 mg/kg/injection, schedule: Q01DX009 (ip), vehicle: saline
[3] = dose: 100.0 mg/kg/injection, schedule: Q01DX009 (ip), vehicle: saline
[4] = dose: 100.0 mg/kg/injection, schedule: Q01DX001 (ip), vehicle: carboxymethylcellulose (CMC)
[5] = dose: 200.0 mg/kg/injection, schedule: Q01DX001 (ip), vehicle: carboxymethylcellulose (CMC)
[6] = dose: 400.0 mg/kg/injection, schedule: Q01DX001 (ip), vehicle: carboxymethylcellulose (CMC)
[7] = dose: 100.0 mg/kg/injection, schedule: Q01DX001 (ip), vehicle: Klucel (hydroxypropylcellulose) (HPC)
[8] = dose: 200.0 mg/kg/injection, schedule: Q01DX001 (ip), vehicle: Klucel (hydroxypropylcellulose) (HPC)
[9] = dose: 400.0 mg/kg/injection, schedule: Q01DX001 (ip), vehicle: Klucel (hydroxypropylcellulose) (HPC)
[10] = dose: 100.0 mg/kg/injection, schedule: Q01DX009 (ip), vehicle: Klucel (hydroxypropylcellulose) (HPC)
[11] = dose: 200.0 mg/kg/injection, schedule: Q01DX009 (ip), vehicle: Klucel (hydroxypropylcellulose) (HPC)
[12] = dose: 400.0 mg/kg/injection, schedule: Q01DX009 (ip), vehicle: Klucel (hydroxypropylcellulose) (HPC)
[13] = dose: 200.0 mg/kg/injection, schedule: Q01DX009 (ip), vehicle: saline
[14] = dose: 100.0 mg/kg/injection, schedule: Q01DX001 (ip), vehicle: saline
[15] = dose: 200.0 mg/kg/injection, schedule: Q01DX001 (ip), vehicle: saline
[16] = dose: 400.0 mg/kg/injection, schedule: Q01DX001 (ip), vehicle: saline
[17] = dose: 100.0 mg/kg/injection, schedule: Q04DX002 (ip), vehicle: Klucel (hydroxypropylcellulose) (HPC)
[18] = dose: 200.0 mg/kg/injection, schedule: Q04DX002 (ip), vehicle: Klucel (hydroxypropylcellulose) (HPC)
[19] = dose: 100.0 mg/kg/injection, schedule: Q04DX003 (ip), vehicle: saline with Tween-80
[20] = dose: 200.0 mg/kg/injection, schedule: Q04DX003 (ip), vehicle: saline with Tween-80
[21] = dose: 400.0 mg/kg/injection, schedule: Q04DX003 (ip), vehicle: saline with Tween-80

Measured: T/C

O=C1C(=O)c2ccccc2C(O)=C1CC=C1CCCC1
inactive: dose: 100.0 mg/kg/injection, schedule: Q01DX001 (ip), vehicle: water 109 % of control | [1] 105 % of control | dose: 200.0 mg/kg/injection, schedule: Q01DX009 (ip), vehicle: water 103 % of control

CN1CCCCC1(Cc1ccccc1)Cc1ccccc1
inactive: [2] 102 % of control | [3] 90 % of control | dose: 100.0 mg/kg/injection, schedule: Q04DX003 (ip), vehicle: saline 106 % of control | dose: 200.0 mg/kg/injection, schedule: Q04DX003 (ip), vehicle: saline 95 % of control

ICC1COC(CI)CO1 (stereo unspecified)
inactive: [4] 97 % of control | [5] 111 % of control and 95 % of control | [6] 95 % of control and 97 % of control

O=C(c1ccccc1)C1NC1c1ccccc1 (stereo unspecified)
inactive: [7] 97 % of control | [8] 92 % of control | [9] 95 % of control

O=C(Cc1ccccc1)Nc1cccc(C(F)(F)F)c1
inactive: [10] 91 % of control | [11] 95 % of control | [12] 98 % of control

CSC1=NCCN1
inactive: [3] 104 % of control | [13] 100 % of control | dose: 400.0 mg/kg/injection, schedule: Q01DX009 (ip), vehicle: saline 104 % of control

CCCCCCCC[Se](=O)O
inactive: dose: 5.0 mg/kg/injection, schedule: Q01DX001 (ip), vehicle: carboxymethylcellulose (CMC) 95 % of control | dose: 10.0 mg/kg/injection, schedule: Q01DX001 (ip), vehicle: carboxymethylcellulose (CMC) 109 % of control | dose: 20.0 mg/kg/injection, schedule: Q01DX001 (ip), vehicle: carboxymethylcellulose (CMC) 109 % of control

CCOC(=O)CC(=O)c1ccccc1F
inactive: [10] 97 % of control | dose: 100.0 mg/kg/injection, schedule: Q04DX003 (ip), vehicle: Klucel (hydroxypropylcellulose) (HPC) 102 % of control | [11] 103 % of control | dose: 200.0 mg/kg/injection, schedule: Q04DX003 (ip), vehicle: Klucel (hydroxypropylcellulose) (HPC) 103 % of control | [12] 93 % of control | dose: 400.0 mg/kg/injection, schedule: Q04DX003 (ip), vehicle: Klucel (hydroxypropylcellulose) (HPC) 100 % of control

O=C(CC(=O)Nc1ccc(C2=NCCCN2)cc1)Nc1ccc(C2=NCCCN2)cc1
inactive: dose: 6.25 mg/kg/injection, schedule: Q01DX Z (ip), vehicle: water 110 % of control | dose: 12.5 mg/kg/injection, schedule: Q01DX Z (ip), vehicle: water 113 % of control | dose: 25.0 mg/kg/injection, schedule: Q01DX Z (ip), vehicle: water 101 % of control | dose: 50.0 mg/kg/injection, schedule: Q01DX Z (ip), vehicle: water 104 % of control | dose: 62.5 mg/kg/injection, schedule: Q01DX Z (ip), vehicle: water 96 % of control | dose: 125.0 mg/kg/injection, schedule: Q01DX Z (ip), vehicle: water 102 % of control | dose: 250.0 mg/kg/injection, schedule: Q01DX Z (ip), vehicle: water 97 % of control

O=C1c2cccc([N+](=O)[O-])c2C(=O)N1c1ncn[nH]1
inactive: dose: 44.0 mg/kg/injection, schedule: Q01DX001 (ip), vehicle: saline 93 % of control and 92 % of control | dose: 50.0 mg/kg/injection, schedule: Q01DX001 (ip), vehicle: saline 100 % of control | dose: 66.0 mg/kg/injection, schedule: Q01DX001 (ip), vehicle: saline 93 % of control and 102 % of control | [14] 95 % of control and 92 % of control | dose: 150.0 mg/kg/injection, schedule: Q01DX001 (ip), vehicle: saline 98 % of control | [15] 111 % of control | [16] 91 % of control

O=C1NC2C1C1c3ccccc3C2C12CC2 (stereo unspecified)
inactive: [17] 105 % of control | [18] 97 % of control | dose: 400.0 mg/kg/injection, schedule: Q04DX002 (ip), vehicle: Klucel (hydroxypropylcellulose) (HPC) 94 % of control

Nn1cnc2c(ncn2C2OC(CO)C(O)C2O)c1=O (stereo unspecified)
inactive: dose: 100.0 mg/kg/injection, schedule: Q01DX005 (ip), vehicle: saline 88 % of control | dose: 200.0 mg/kg/injection, schedule: Q01DX005 (ip), vehicle: saline 100 % of control

O=c1c2[nH]c3cccc(Cl)c3c2cnn1-c1ccc(F)cc1
inactive: [7] 96 % of control | [8] 104 % of control | [9] 104 % of control

CC1(c2ccccc2O)Nc2ccccc2S1 (stereo unspecified)
inactive: [19] 92 % of control | [20] 92 % of control | [21] 96 % of control

CCN(CC)CCCNC(C)=O
inactive: [3] 96 % of control | [13] 98 % of control

BrCCC[CH2][Sn]([c]1ccccc1)([c]1ccccc1)[c]1ccccc1
inactive: [2] 100 % of control | [3] 100 % of control | [13] 100 % of control

CC(NC(=O)C(NC(=O)c1cnc2ccccc2n1)C(C)C)C(=O)O (stereo unspecified)
inactive: [14] 94 % of control | dose: 100.0 mg/kg/injection, schedule: Q04DX003 (ip), vehicle: acetone 99 % of control | [15] 104 % of control | dose: 200.0 mg/kg/injection, schedule: Q04DX003 (ip), vehicle: acetone 103 % of control | [16] 96 % of control | dose: 400.0 mg/kg/injection, schedule: Q04DX003 (ip), vehicle: acetone 99 % of control

CCCCCCCCCCCCCCCCN1CNC(=O)NC1
inactive: dose: 100.0 mg/kg/injection, schedule: Q01DX001 (ip), vehicle: other 98 % of control | dose: 200.0 mg/kg/injection, schedule: Q01DX001 (ip), vehicle: other 98 % of control | dose: 400.0 mg/kg/injection, schedule: Q01DX001 (ip), vehicle: other 95 % of control

CN1CCCCCC1
inactive: dose: 50.0 mg/kg/injection, schedule: Q01DX009 (ip), vehicle: acetone 86 % of control | dose: 100.0 mg/kg/injection, schedule: Q01DX009 (ip), vehicle: acetone 110 % of control

O=S(=O)(OCCCl)OCCCl
inactive: dose: 25.0 mg/kg/injection, schedule: Q01DX010 (ip), vehicle: olive oil, sesame oil, peanut oil 100 % of control | dose: 37.5 mg/kg/injection, schedule: Q01DX010 (ip), vehicle: olive oil, sesame oil, peanut oil 102 % of control | dose: 50.0 mg/kg/injection, schedule: Q01DX010 (ip), vehicle: olive oil, sesame oil, peanut oil 97 % of control

CNC(=O)Nc1cc(C)ccc1OC
inactive: [10] 100 % of control | [11] 104 % of control | [12] 109 % of control

Cc1cn(C)c2nccnc12
inactive: dose: 25.0 mg/kg/injection, schedule: Q01DX009 (ip), vehicle: water 104 % of control | dose: 50.0 mg/kg/injection, schedule: Q01DX009 (ip), vehicle: water 110 % of control | [1] 98 % of control

O=c1[nH]nc(S(=O)(=O)N2CCOCC2)c(=O)[nH]1
inactive: [4] 98 % of control | [5] 96 % of control | [6] 96 % of control

NC(=S)NC(N)=S
inactive: [19] 94 % of control | [20] 96 % of control | [21] 96 % of control

CCCCN1C(=O)C2C3CCC(O3)C2C1=O (stereo unspecified)
inactive: [17] 98 % of control | [18] 103 % of control
